Results reported in US20090054326A1 (NASTECH PHARMACEUTICAL COMPANY INC., priority 2005, published 2009).

Columns and labels:
aminopeptidases = conditions: cited from earlier work
[1] = system: normal, human-derived tracheal/bronchial epithelial cells (EpiAirway Tissue Model); assay: Transepithelial electrical resistance (TER) in EpiAirway tissue model; format: cell-based; conditions: after one hour exposure at 37° C.; Examples 1-4
Protocol: Samples were evaluated in an in vitro tissue model. […] Inserts were feed for each day of recovery.
TER measurements were accomplished using the Endohm-12 Tissue Resistance Measurement Chamber connected to the EVOM Epithelial Voltohmmeter (World Precision Instruments, Sarasota, Fla.) with the electrode leads. The electrodes and a tissue culture blank insert were equilibrated for at least 20 minutes in MatTek medium with the power off prior to check calibration. The background resistance was measured with 1.5 ml Media in the Endohm tissue chamber and 300 μl Media in the blank insert. The top electrode was adjusted so that it was close to, but not making contact with, the top surface of the insert membrane. Background resistance of the blank insert was about 5-20 ohms. For each TER determination, 300 μl of MatTek medium was added to the insert followed by placement in the Endom chamber. Resistance was expressed as (resistance measured−blank)×0.6 cm^2.

Row | Compound | more effective in enzyme inhibition than bestatin (aminopeptidases; relative to bestatin) | more effective in enzyme inhibition than puromycin (aminopeptidases; relative to puromycin) | change in TER [1]
1 | CC(C)CC(N)B(O)O (stereo not drawn) [boro-leucine] | more than 100 times | more than 1000 times | 
2 | Triton X |  |  | essentially a complete reduction in TER
